What is called IC50 is the point on the concentration scale where inhibition reaches its midpoint.

Molecules are shown by their SMILES. Numbered stars: 1 amine (or outer) side, 2 acyl side, 3 side chain; on linkers, the order of the positions; unused ones are H or OH. Bridge positions count the residues as written; N and C are the ends. Square brackets hold non-standard residues; d marks the D form. Peptide text beside a SMILES is read from it. * marks the point of attachment. hPhe(3-Cl-4-CF3) = N[C@@H](CCc1ccc(C(F)(F)F)c(Cl)c1)C(=O)O; X98 = O=C([C@H](CCOc1ccc(Cl)c(Cl)c1)N[*:1])[*:2]; X69 = CN(C)C(=O)COCCN(CC(=O)[*:2])[*:1]; NMeCha = CN[C@@H](CC1CCCCC1)C(=O)O; X81 = O=C(CN(CCOCC(F)F)[*:1])[*:2]; NMeChg = CN[C@H](C(=O)O)C1CCCCC1; NMeD = CN[C@@H](CC(=O)O)C(=O)O; Gly(N-CH2CH2OH) = O=C(O)CNCCO; NMeL = CN[C@@H](CC(C)C)C(=O)O; NMeA = CN[C@@H](C)C(=O)O; Piperidide = C1CCN(*)CC1; Ac5c = NC1(C(=O)O)CCCC1; Sar = CNCC(=O)O

The text below walks through data of patent US20240148821A1, “PHARMACEUTICAL USE OF CYCLIC PEPTIDE COMPOUND” (CHUGAI SEIYAKU KABUSHIKI KAISHA, priority 2021, published 2024).

The experiment concerns the target protein-protein interaction between Kras and SOS1 (biotin-tagged human Kras loaded with GDP, His-tagged human SOS1) (Homo sapiens (Human), UniProt P01116, G12D). The experiment in a line: Protein-protein interaction inhibition between Kras and SOS1 (KrasG12D-SOS PPI) using AlphaScreen.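 Note: kras produced in E. coli, Ni-coupled donor beads and streptavidin acceptor beads, excitation 680 nm with emission detected at 520–620 nm via singlet oxygen transfer.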 It counts as biochemical. The conditions noted are these: AlphaScreen; biotin-tagged human Kras loaded with GDP, His-tagged human SOS1; read-out: KRAS G12D-SOS PPI IC50. (Bead proximity is the source of the signal in Alpha formats.)
`CC[C@H](C)[C@@H]1NC(=O)[C@H](CC(C)C)N(C)C(=O)C[C@@H](C(=O)N2CCCCC2)N(C)C(=O)[C@H](C2CCCCC2)N(C)C(=O)C2(CCCC2)NC(=O)CN(CCOCC(F)F)C(=O)[C@H](CCc2ccc(C(F)(F)F)c(Cl)c2)NC(=O)CN(C)C(=O)[C@H](CC2CCCCC2)N(C)C(=O)CN(C)C(=O)CN(C)C1=O` [Compound 2036] ([NMeL]I[Sar][Sar][NMeCha][Sar][hPhe(3-Cl-4-CF3)][X81][Ac5c][NMeChg][NMeD]-Piperidide; lactam N-11 (inferred); C-terminus assumed): the IC50 stood at 1.1 nM.

Turning to `CC[C@H](C)[C@@H]1NC(=O)[C@H](CC(C)C)N(C)C(=O)C[C@@H](C(=O)N2CCCCC2)N(C)C(=O)[C@H](C2CCCCC2)N(C)C(=O)C2(CCCC2)NC(=O)CN(CCO)C(=O)[C@H](CCc2ccc(C(F)(F)F)c(Cl)c2)NC(=O)CN(C)C(=O)[C@H](CC2CCCCC2)N(C)C(=O)CN(C)C(=O)CN(C)C1=O` [Compound 2037, (11S,17S,26S,29S,33S,36S)-11-[2-[3-chloro-4-(trifluoromethyl)phenyl]ethyl]-36-cyclohexyl-17-(cyclohexylmethyl)-9-(2-hydroxyethyl)-29-isobutyl-15,18,21,24,30,34,37-heptamethyl-26-[(1S)-1-methylpropyl]-33-(piperidine-1-carbonyl)-6,9,12,15,18,21,24,27,30,34,37-undecazaspiro[4.33]octatriacontane-7,10,13,16,19,22,25,28,31,35,38-undecone] ([NMeL]I[Sar][Sar][NMeCha][Sar][hPhe(3-Cl-4-CF3)][Gly(N-CH2CH2OH)][Ac5c][NMeChg][NMeD]-Piperidide; lactam N-11), the IC50 stood at 0.58 nM.

Regarding `CC[C@H](C)[C@@H]1NC(=O)[C@H](CC(C)C)N(C)C(=O)C[C@@H](C(=O)N2CCCCC2)N(C)C(=O)[C@H](C2CCCCC2)N(C)C(=O)C2(CCCC2)NC(=O)CN(CCOCC(=O)N(C)C)C(=O)[C@H](CCc2ccc(C(F)(F)F)c(Cl)c2)NC(=O)CN(C)C(=O)[C@H](CC2CCCCC2)N(C)C(=O)CN(C)C(=O)CN(C)C1=O` [Compound 2038, 2-[2-[(11S,17S,26S,29S,33S,36S)-11-[2-[3-chloro-4-(Trifluoromethyl)phenyl]ethyl]-36-cyclohexyl-17-(cyclohexylmethyl)-29-isobutyl-15,18,21,24,30,34,37-heptamethyl-26-[(1S)-1-methylpropyl]-7,10,13,16,19,22,25,28,31,35,38-undecaoxo-33-(piperidine-1-carbonyl)-6,9,12,15,18,21,24,27,30,34,37-undecazaspiro[4.33]octatriacontan-9-yl]ethoxy]-N,N-dimethyl-acetamide] ([NMeL]I[Sar][Sar][NMeCha][Sar][hPhe(3-Cl-4-CF3)][X69][Ac5c][NMeChg][NMeD]-Piperidide; lactam N-11), the IC50 was 8.3 nM.

In the case of `CC[C@H](C)[C@@H]1NC(=O)[C@H](C)N(C)C(=O)C[C@@H](C(=O)N2CCCCC2)N(C)C(=O)[C@H](C2CCCCC2)N(C)C(=O)C2(CCCC2)NC(=O)[C@@H]2CCCN2C(=O)[C@H](CCOc2ccc(Cl)c(Cl)c2)NC(=O)CN(C)C(=O)[C@H](CC2CCCCC2)N(C)C(=O)CN(C)C(=O)CN(C)C1=O` [Compound 2039, (3S,9S,18S,21S,25S,28S,34S)-28-cyclohexyl-9-(cyclohexylmethyl)-3-[2-(3,4-dichlorophenoxy)ethyl]-7,10,13,16,21,22,26,29-octamethyl-18-[(1S)-1-methylpropyl]-25-(piperidine-1-carbonyl)spiro[1,4,7,10,13,16,19,22,26,29,32-undecazabicyclo[32.3.0]heptatriacontane-31,1′-cyclopentane]-2,5,8,11,14,17,20,23,27,30,33-undecone] ([NMeA]I[Sar][Sar][NMeCha][Sar][X98]P[Ac5c][NMeChg][NMeD]-Piperidide; lactam N-11), the 50% inhibitory concentration (IC50) worked out at 18 nM.
